These results are taken from paper PMC5908784, “Extracellular loops 2 and 3 of the calcitonin receptor selectively modify agonist binding and efficacy” (Biochemical Pharmacology, 2018).

Residue numbers refer to the chain shown, from its start.

What all share (assay): cAMP accumulation
Common to all, as to format: cell-based
What all share (details): cAMP maximal response, mean ± S.E.M., SEM
On the technique in general: Cyclic AMP is a second messenger, typically raised through Gs and lowered through Gi signalling.

One assay has as its target T1, hCTR W361A (Homo sapiens, UniProt P30988, W361A).
T1 construct: expressed in transfected cells
T1 sequence (P30988 25-474 W361A): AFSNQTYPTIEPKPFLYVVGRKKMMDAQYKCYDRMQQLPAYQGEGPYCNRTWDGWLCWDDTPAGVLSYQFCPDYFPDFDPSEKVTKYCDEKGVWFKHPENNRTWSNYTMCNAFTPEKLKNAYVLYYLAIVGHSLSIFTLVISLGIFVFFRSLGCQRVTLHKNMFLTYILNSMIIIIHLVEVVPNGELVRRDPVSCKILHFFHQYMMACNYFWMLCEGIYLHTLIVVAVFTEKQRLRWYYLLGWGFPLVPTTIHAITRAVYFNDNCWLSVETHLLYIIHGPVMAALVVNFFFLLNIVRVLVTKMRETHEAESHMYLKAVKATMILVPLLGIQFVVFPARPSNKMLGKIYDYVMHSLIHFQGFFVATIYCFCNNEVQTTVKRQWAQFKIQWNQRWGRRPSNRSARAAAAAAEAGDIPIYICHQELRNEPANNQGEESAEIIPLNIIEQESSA
An outline of the steps: (§1)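 Read-out: cAMP accumulated over 30 min of graded ligand exposure in IBMX-containing medium, expressed relative to 100 μM forskolin. Potency (EC50) and maximal effect (Emax) derive from 3-parameter logistic concentration-response curves.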

A further assay deals with T2, hCTR M376A (Homo sapiens, UniProt P30988, M376A).
T2 construct: c-Myc (N); expressed in transfected cells
T2 sequence (P30988 25-474 M376A): T1 sequence (P30988 25-474 W361A) with A337W, M352A
An outline of the steps: as §1

The target of a further assay is T3, hCTR L298A (Homo sapiens, UniProt P30988, L298A).
T3 construct: c-Myc (N); expressed in transfected cells
T3 sequence (P30988 25-474 L298A): T1 sequence (P30988 25-474 W361A) with L274A, A337W
An outline of the steps:
as §1

For the next assay, the target named is T4, hCTR E294A (Homo sapiens, UniProt P30988, E294A).
T4 construct: c-Myc (N); expressed in transfected cells
T4 sequence (P30988 25-474 E294A): T1 sequence (P30988 25-474 W361A) with E270A, A337W
Put shortly: as §1

The target of another assay is T5, hCTR T280A (Homo sapiens, UniProt P30988, T280A).
T5 construct: expressed in transfected cells
T5 sequence (P30988 25-474 T280A): T1 sequence (P30988 25-474 W361A) with T256A, A337W
An outline of the steps:
as §1

Turning to `CC(C)C[C@H](NC(=O)[C@H](CCCCN)NC(=O)CNC(=O)[C@H](CC(C)C)NC(=O)[C@@H](NC(=O)[C@@H]1CSSC[C@H](N)C(=O)N[C@@H](CO)C(=O)N[C@@H](CC(N)=O)C(=O)N[C@@H](CC(C)C)C(=O)N[C@@H](CO)C(=O)N[C@@H]([C@@H](C)O)C(=O)N1)C(C)C)C(=O)N[C@@H](CO)C(=O)N[C@@H](CCC(N)=O)C(=O)N[C@@H](CCC(=O)O)C(=O)N[C@@H](CC(C)C)C(=O)N[C@@H](Cc1c[nH]cn1)C(=O)N[C@@H](CCCCN)C(=O)N[C@@H](CC(C)C)C(=O)N[C@@H](CCC(N)=O)C(=O)N[C@H](C(=O)N[C@@H](Cc1ccc(O)cc1)C(=O)N1CCC[C@H]1C(=O)N[C@@H](CCCNC(=N)N)C(=O)N[C@H](C(=O)N[C@@H](CC(N)=O)C(=O)N[C@H](C(=O)NCC(=O)N[C@@H](CO)C(=O)NCC(=O)N[C@H](C(=O)N1CCC[C@H]1C(N)=O)[C@@H](C)O)[C@@H](C)O)[C@@H](C)O)[C@@H](C)O` [sCT], the Emax – broadly, the size of the effect at its maximum, as opposed to the concentration needed – at hCTR W361A stood at 126 ± 7%; at hCTR M376A, 102 ± 6%; at hCTR L298A it was 112 ± 9%; on hCTR E294A, 98 ± 9%; at hCTR T280A, 107 ± 14%.
